Patent publication US9567318B2, “Substituted pyrimidine compounds and uses thereof” (Memorial Sloan-Kettering Cancer Center, priority 2009, dated 2017)
“Also recorded” adds a separate entry of the source.

Tests used:
[1] = test system: MDA-MB-468 xenografted tumors; test: Tumor xenografts; format: in vivo; conditions: i.t., alternate days, mice
Description: FIG. 12. YK5 affects the major hallmarks of cancer: inhibits proliferation and invasiveness and arrests cancer cells in the cell cycle. (a) The indicated cancer cells were incubated with increasing concentrations of inhibitors and growth over 72 h was assessed. Y-axis values below 0% represent cell death of the starting population. Drugs were assayed in triplicate. (b) Mice (n=5) bearing MDA-MB-468 subcutaneously (s.c.) xenografted tumors that reached a volume of approximately 100-200 mm^3, were administered i.t. YK5 or vehicle as described in Methods. Tumor volume (mm^3) was estimated from caliper measurements. (c) Cells were treated for 24 h with indicated concentrations of YK5. DNA content was analyzed by propidium iodide staining and flow cytometry (left), whereas proteins by western blotting (right). (d) Hsp70 client proteins isolated by YK55-beads from SKBr3 and MDA-MB-468 extracts (500 μg) were analyzed by western blotting. […] (e) MDA-MB-231 breast cancer cells were treated for 24 h with YK5 (1 μM) and protein extracts were subjected to immunoblotting (upper) or pre-treated for 24 h with vehicle or YK5, and viable cells able to migrate through Matrigel over a 20 h period were quantified and data graphed (lower). […]
Tumor Xenografts. […] Tumor volume was determined by measurement with Vernier calipers, and tumor volume was calculated as the product of its length×width^2×0.4. […]

[2] = test system: HER2, Raf-1, Akt, Hsp70 in SKBr3 cells; test: Western blotting of Hsp90 onco-client proteins and Hsp70 in SKBr3 cells; format: cell-based, human; conditions: SKBr3 cells, 24 h
Description: FIG. 3. Testing strategy for the discovery of YK5. a, b) SKBr3 cells were treated for 24 h with the indicated concentrations of inhibitors and cells were lysed for western blot (WB) analysis. β-actin was used as loading control. The data are consistent with those obtained from multiple repeat experiments (n≧3). c) The ability of the indicated inhibitors to compete with GM-Cy3B for Hsp90 binding in SKBr3 cell extracts was examined by fluorescence polarization. Values recorded in wells with added inhibitor were normalized to values read in control wells and plotted against the concentration of tested inhibitor. Drugs were assayed in triplicate. All compounds were used as DMSO stocks. Points, mean; bars, s.d. d) Growth inhibition: SKBr3 cells were incubated in triplicate with increasing concentrations of compound and growth over 72 h was assessed. Y-axis values below 0% represent cell death of the starting population. HER2 degradation was analyzed as in panel a), and gels were quantified by densitometry. Recorded values were normalized to control (vehicle only treated cells) and data graphed against YK5 concentration. Error bars represent the s.d. of the mean (n=3).
FIG. 8. […] Points, mean; bars, s.d. Yaxis values below 0% represent cell death of the starting population. c) Streptavidin beads (50 μl) were incubated with the indicated concentrations of YK55, YK56 or D-biotin to immobilize the corresponding compounds on beads. Beads (50 μl) were probed with SKBr3 cell extracts (500 μg), and the precipitated Hsp70 analyzed by western blot and quantified by […]. Results from three independent experiments were graphed to determine the relative binding affinity of YKs. Points, mean; bars, s.d. d) Structure of representative YKs. YK55 and YK56 are the biotinylated derivatives of YK54 and YK57, respectively.
FIG. 9. […] Cells were treated for 24 h with the indicated concentrations of YK149 and YK5. Cells were lysed and proteins analyzed by western blotting. b) Examples of the compounds of the present subject matter inhibit the activity of the oncogenic STAT3 in the triple-negative breast cancer cells MDA-MB-468. Cells were treated for the indicated times with compounds or vehicle and proteins analyzed by western blot. (c) Examples of the compounds of the present subject matter dose-dependently induce apoptosis in the acute myeloid leukemia cells MOLM13. Cells were treated for 24 h with the indicated concentration of compounds and the increase in caspase3,7 activity was measured and compared to only vehicle (DMSO) treated cells. Caspase-3,7 activity was a measure of compound potency in cleaving the caspase substrate Z-DEVD-R110 and releasing rhodamine. The percentage increase in apoptotic cells was calculated by comparing the fluorescence readings obtained from compounds with those obtained from vehicle (DMSO)-treated cells.
Western Blotting. Cells were grown to 60-70% confluence and treated with inhibitor or DMSO vehicle for the indicated times. Protein lysates were prepared in 50 mM Tris pH 7.4, 150 mM NaCl and 1% NP-40 lysis buffer. Protein concentrations were measured using the BCA kit (Pierce) according to the manufacturer's instructions. […]

[3] = test system: primary human AML cells (blasts, leukemia stem cells); test: Treatment of primary AML cells; format: cell-based; conditions: 24 h
Description: FIG. 20. Treatment of primary AML cells with YK5. YK5 kills both blast and cancer stem cells but not normal cells. Cells were treated with increasing concentrations of YK5 for 24 h. (a-b) % viability relative to untreated control is shown. Open bars: “Other” represent normal cells in the same patient (non-blast), Gray bars: Blasts (CD45 dim). red bars: leukemia stem cells (LSCs) (CD34+CD38-CD123+). (c) CFU (Colony forming units) decrease after treatment of primary AML cells with YK5. **p<0.001.
Strikingly, a high sensitivity of phenotypically described leukemia stem cells and of total leukemic blasts was observed (FIG. 20b; red vs. gray bars). […] Thus, a compound with cancer stem cell toxicity, such as YKs, is of significant value to improving cancer therapy.
Primary Cell Isolation and Culture. Primary human AML cells were obtained with informed consent. All manipulation and analysis of specimens was approved by the Weill Cornell Medical College Institutional Review Board. Mononuclear cells were isolated using Ficoll-Plaque (Pharmacia Biotech, Piscataway, N.Y.) density gradient separation. In some cases, cells were cryopreserved in freezing medium consisting of Iscove's modified Dulbecco medium (IMDM), 40% fetal bovine serum (FBS), and 10% dimethylsulfoxide (DMSO) or in CryoStor™ CS-10 (Biolife).

C=CC(=O)Nc1cc(N)nc(Sc2c(OC)nc(N3CCN(C)CC3)nc2OC)n1 [YK5, N-(6-amino-2-(4,6-dimethoxy-2-(4-methylpiperazin-1-yl)pyrimidin-5-ylthio)pyrimidin-4-yl)acrylamide]
growth of xenografted tumors [1]: inhibited the growth of MDA-MB-468 xenografted tumors | feed-back induction of Hsp70 (heat shock response) [2]: undetected | degradation of Hsp90 onco-client proteins (HER2, Raf-1, Akt) ([2]; western blot): dose-dependently reduce the steady-state levels of HER2 and Raf-1; also recorded: induced the degradation of HER2, Raf-1 and Akt kinases | cell death in primary AML specimens [3]: induced potent cell death in blast, stem and progenitor populations
